The record followed here is US7125958B1, “Malaria polypeptides” (priority 1997, dated 2006).

Common to all, as to format: cell-based, Plasmodium falciparum
For data set [1], the system named is FCR3S1.2 infected pRBC rosettes. The settings on record: competitive rosette-reformation, enzyme 60–90 min.
The subject of a further data set is FCR3S1 rosetting. The settings on record: compared to mock treated control cultures.
The subject of another data set is TM 284 rosetting. The settings on record: for change in rosetting after treatment of whole cultures, TM 284: compared to mock treated control cultures.
In data set [2] the test system is uninfected RBC rosette binding capacity. The settings on record: compared to non-treated RBC.
Another data set deals with TM180 rosettes. Put plainly: Heparinase treatment, rosettes of strain TM180. The settings on record: not shown.
Another data set deals with R29 rosettes. Put plainly: Heparinase treatment, rosettes of strain R29. The settings on record: not shown.
The subject of another data set is TM 284 rosettes.
Another data set concerns FCR3S1 rosettes.

As for Heparinase III, the “effect of enzyme treatment of the uninfected erythrocyte on rosette binding” value in data set [1] is recorded as “treatment blocked the binding”. Besides, the “change in rosetting after treatment of whole cultures, FCR3S1” value with FCR3S1 rosetting was “drastic reduction of the rosetting capacity”. In addition, the “change in rosetting after treatment of whole cultures, TM 284” value in the data set on TM 284 rosetting is recorded as “somewhat lower decrease”. For the same substance, in the data set with TM 284 rosetting (not shown), the “effect of heparinase treatment on rosettes, TM284” value is listed as “disrupted the rosettes”. In data set [2], the “decrease of rosette binding capacity of treated uninfected RBC” value is 4–5 fold. Moreover, in the data set on TM180 rosettes, the “effect of heparinase treatment on rosettes, TM180” value is “disrupted the rosettes”. In addition, the “effect of heparinase treatment on rosettes, R29” value in the data set on R29 rosettes is “not affected”.
Turning to Chondroitinase ABC, the “change in rosetting after treatment of whole cultures, FCR3S1” value in the data set with FCR3S1 rosetting is listed as “had only effect on the rosetting of the TM284 strain”. Moreover, the “change in rosetting after treatment of whole cultures, TM 284” value in the data set on TM 284 rosetting was “had only effect on the rosetting of the TM284 strain”. In addition, the “decrease of binding capacity of treated uninfected RBC, TM 284” value in the data set with TM 284 rosettes is “two fold decrease”. In the data set on FCR3S1 rosettes, the “binding capacity of treated uninfected RBC, FCR3S1” value is “unaffected”.
